Measurements published in PMC9322122, “Development of (4-Phenylamino)quinazoline Alkylthiourea Derivatives as Novel NF-κB Inhibitors” (Pharmaceuticals, 2022).
“Also recorded” adds a separate entry of the source.

Legend:
[1] = system: protein kinases known to regulate the NF-κB pathway; experiment: Kinase screening panel as a whole; assay type: biochemical; conditions: Table S1
Excerpt: While the EGFR kinase inhibitory activity was largely abolished here, it could not be excluded that our modifications may have generated affinity to another kinase. The most important kinases to be checked were those reported to phosphorylate p65-Ser468 in different cell types, comprising GSK3β, IKKβ, and IKKɛ [45, 46, 47]. In addition, all the kinases described in the literature to control the canonical and non-canonical pathway of NF-κB activation were also included in the screening panel. […] Instead, the inhibitory effect of 19 on the Ser468 phosphorylation might be indirect, e.g., through interference with proteins complexes regulating the Ser468 kinase activity.
Tabl e S1. Selectivity profiling of compound 19 ag ainst the protein kinases known to regulate the NF-kB pathway ki nase % Inhibiti on at 2 µMa […]
aScreenings were perf or med as a servi ce at Thermo Fisher Scientific at an ATP concentrat ion of 100 μM. n.i., no inhi biti on. Data represent mean values of duplicat es that differed by less t han 7%.

NF-κB p65 = experiment: Nuclear translocation of NF-κB p65, immunofluorescent staining; assay type: cell-based, human; conditions: 7.5 µM, 3 h, then LPS 0.1 µg/mL 30 min; dTHP-1 cells
Protocol: Cells were fixed with 4% formaldehyde and then incubated with 5% goat serum. The intracellular location of NF-κB p65 was determined using primary antibodies against NF-κB p65 (Cell Signaling Technology, Beverly, MA, USA) and FITC-conjugated secondary antibody. Nuclei were counterstained with Hoechst (1 µg/mL). Images were obtained by fluorescent microscopy (OLYMPUS IX 81; Olympus, Tokyo, Japan).
The dTHP−1 cells were incubated with DMSO (0.1%), 19 (7.5 µM), or CAPE (10 µM) in medium for 3 h and then stimulated with or without LPS (0.1 µg/mL) for another 30 min. (A) Nuclear translocation of NF-κB p65 (green) was determined by immunofluorescent microscopy. Hoechst (blue) was used for nuclei staining. (B) The nuclear NF-κB p65-positive cells were quantified. (C) The levels of phospho-NF-κB p65 (S468), IκB, and GAPDH were determined by Western blot. (D) The normalized phospho-NF-κB p65 (S468) and IκB levels were quantified. All data are expressed as mean ± SEM (n = 3); ** p < 0.01 and *** p < 0.001 compared with the DMSO + LPS group.

[2] = Cell viability (WST-1), HEK293; assay type: cell-based; conditions: human, HEK293 cells, mean ± SEM, n = 3
Protocol: (§1) Cells were incubated with the WST-1 reagent (Thermo Fisher Scientific, Waltham, MA, USA) at 37 °C for 2 h. The cell viability was determined by spectrophotometer at 450 nm.

TNFα production = TNFα production in LPS-activated dTHP-1 cells (ELISA); assay type: cell-based; conditions: Homo sapiens
Protocol: (§2) The HEK-293 (ATCC Cat# CRL-1573, RRID:CVCL_0045) and human monocytic THP−1 cells (ATCC Cat# TIB-202, RRID:CVCL_0006) were, respectively, cultured in DMEM and RPMI 1640 media supplemented with 10% fetal bovine serum, 2 mM L-glutamine, and 1× Antibiotic-Antimycotic at 37 °C in a humidified incubator with 5% CO2. THP−1 cells were differentiated by 100 nM phorbol-12-myristate-13-acetate (PMA) for 4 h and then rested for 44 h as dTHP−1 cells.
(§3) The dTHP−1 cells were treated with indicated compounds for 3 h and then activated with or without 100 ng/mL lipopolysaccharide (LPS; E. coli 0111:B4) for another 24 h. The levels of human IL-6 and TNFα in supernatants were measured by DuoSet® ELISA Development System (R&D systems, Minneapolis, MN, USA) according to the manufacturer’s protocol.

NF-κB = NF-κB luciferase reporter assay; assay type: cell-based; conditions: Homo sapiens, NF-κB-luciferase-transfected HEK293 cells, TNFα 50 ng/mL
Protocol: NF-κB Luciferase Reporter Vector was purchased from Signosis (Santa Clara, CA, USA) and transfected into HEK-293 cells using FuGENE HD (Promega, Fitchburg, MA, USA) following the manufacturer’s protocol. The transfected cells were incubated in serum-free DMEM for 16 h and then treated with DMSO or indicated compounds. After 3 h, cells were treated with or without 50 ng/mL of Recombinant Human TNFα Protein (R&D systems, Minneapolis, MN, USA) for another 3 h. The protein lysates were analyzed using Steady-Glo® Luciferase Assay System (Promega, Fitchburg, MA, USA) and TECAN Infinite 200 pro (Männedorf, Switzerland).

dTHP−1 cells = experiment: Cell viability of dTHP-1 cells with or without LPS; assay type: cell-based, human; conditions: in % (unit assumed)
Protocol: as §2, §1, §3

[3] = Cell viability (WST-1), A549; assay type: cell-based; conditions: human, A549 cells, mean ± SEM, n = 3
Protocol: as §1

Recombinant EGFR kinase = Recombinant EGFR kinase (Homo sapiens, UniProt P00533); experiment: Recombinant EGFR kinase activity; assay type: biochemical; conditions: read-out: Recombinant EGFR Kinase Activity (%inh at 150 nM)
Recombinant EGFR kinase, sequence (P00533 25-1210): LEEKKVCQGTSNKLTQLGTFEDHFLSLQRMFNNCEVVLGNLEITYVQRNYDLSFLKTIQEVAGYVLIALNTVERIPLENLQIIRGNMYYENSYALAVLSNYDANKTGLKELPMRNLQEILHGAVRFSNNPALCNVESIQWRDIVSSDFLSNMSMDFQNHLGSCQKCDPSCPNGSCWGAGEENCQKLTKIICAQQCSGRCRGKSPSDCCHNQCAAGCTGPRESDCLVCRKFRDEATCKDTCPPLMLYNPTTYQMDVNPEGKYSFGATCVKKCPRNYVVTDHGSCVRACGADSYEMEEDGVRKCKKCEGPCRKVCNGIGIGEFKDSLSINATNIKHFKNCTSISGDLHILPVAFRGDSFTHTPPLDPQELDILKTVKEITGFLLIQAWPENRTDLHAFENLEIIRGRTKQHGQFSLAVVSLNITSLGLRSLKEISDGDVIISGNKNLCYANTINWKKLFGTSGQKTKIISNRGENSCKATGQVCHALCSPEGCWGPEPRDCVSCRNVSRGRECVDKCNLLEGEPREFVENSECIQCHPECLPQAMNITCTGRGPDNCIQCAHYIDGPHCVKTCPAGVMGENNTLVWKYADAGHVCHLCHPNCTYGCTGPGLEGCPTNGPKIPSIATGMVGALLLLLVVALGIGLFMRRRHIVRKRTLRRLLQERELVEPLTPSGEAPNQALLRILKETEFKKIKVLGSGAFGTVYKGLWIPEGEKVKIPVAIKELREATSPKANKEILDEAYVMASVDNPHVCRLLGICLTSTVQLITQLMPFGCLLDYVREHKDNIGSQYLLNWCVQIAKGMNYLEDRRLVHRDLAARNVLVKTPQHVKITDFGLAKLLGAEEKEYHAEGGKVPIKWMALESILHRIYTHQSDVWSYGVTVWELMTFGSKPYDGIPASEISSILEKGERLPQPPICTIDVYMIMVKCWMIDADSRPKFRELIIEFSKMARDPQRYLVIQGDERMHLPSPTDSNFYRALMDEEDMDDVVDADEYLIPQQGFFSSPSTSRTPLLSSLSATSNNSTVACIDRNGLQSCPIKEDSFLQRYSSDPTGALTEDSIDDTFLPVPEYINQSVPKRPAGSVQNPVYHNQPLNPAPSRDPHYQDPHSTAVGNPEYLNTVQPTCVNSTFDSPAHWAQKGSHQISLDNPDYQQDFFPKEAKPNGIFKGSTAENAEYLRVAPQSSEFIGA

S=C(Nc1ccc2ncnc(Nc3cccc(Cl)c3)c2c1)NC1CCCC1 [Compound 19, 1-(4-((3-Chlorophenyl)amino)quinazolin-6-yl)-3-cyclopentylthiourea]
Inhibition of kinases involved in NF-κB activation (panel) [1]: did not appreciably inhibit any of these kinases
LPS-induced nuclear translocation of NF-κB p65 (NF-κB p65): inhibits the LPS-induced nuclear translocation of NF-κB p65; also recorded: clearly inhibited the nuclear translocation of NF-κB
viability at 10 µM [2]: 118 ± 11.4%
melting point: 229.1 to 231.6 °C
inhibition at 7.5 µM (TNFα production; 7.5 μM, LPS 100 ng/mL for 24 h, dTHP-1 cells, read-out: TNFα Production Inh % (7.5 μM)): 82.5 ± 5.6%
inhibition at 15 µM (TNFα production; 15 μM, LPS 100 ng/mL for 24 h, dTHP-1 cells, read-out: TNFα Production Inh % (15 μM)): 91.5 ± 2.5%
IC50 (TNFα production; LPS-activated dTHP-1 cells, 24 h): 4 ± 0.2 µM
inhibition at 10 µM (NF-κB; 10 μM, mean ± SEM, n = 3, read-out: NF-κB Luciferase Activity Inh %): 92.5 ± 0.8%
IC50 (NF-κB): 2.3 µM
Cell viability of dTHP-1 cells, 5 μM, LPS (dTHP−1 cells; 5 μM (so in the source), LPS 100 ng/mL for 24 h): 4.9 ± 0.38
Cell viability of dTHP-1 cells, 5 μM, without LPS (dTHP−1 cells; 5 μM (so in the source), no LPS): 30.0 ± 1.3
Cell viability of dTHP-1 cells, 7.5 μM, without LPS (dTHP−1 cells; 7.5 μM, no LPS): 60.3 ± 0.85
viability at 10 µM [3]: 99.9 ± 1.6%
inhibition at 0.15 µM (Recombinant EGFR kinase): 23%
